We go through 2 compounds from patent publication EP4089103A1, “CLPCP PROTEASE-BINDING CYCLIC HEPTAPEPTIDES” (priority 2021, dated 2022).

Values joined by “and” are separate entries in the source; they are usually repeats but may differ in a detail not shown here. Equal entries are not always repeated.

For data set [1] the following is noted: from H-Val-MeLeu-Ile-Trp(Boc)-MeGlu(tBu)-Ala-Phe-OH; amide bond; 21-membered ring; T3P/DIEA; DCM; 0.75 mM; 25.0 °C.
For data set [2] the following is noted: from H-Val-MeLeu-Ile-Trp(Boc)-MeGlu(tBu)-Ala-Phe-OH; amide bond; 21-membered ring; T3P/DIEA; DCM; 0.75 mM; 25.0 °C. This is another data set of the same source.
The subject of data set [3] is BRDTBD1 expressed in M. smegmatis cells. The experiment in a line: In vivo degradation assay in live mycobacteria, capillary western (Wes). The conditions noted are these: 100 µM, 10 µM or 1 µM BacPROTAC-3, 100 µM sCym-1 or 100 µM JQ1; 2 hours incubation; Figure 3. In kind it is cell-based, M. smegmatis mc^2-155. As to the method:
After validating the activity of the compound Cym_bacPROTAC_3 in vitro, the compound was investigated in an in vivo degradation assay in a cellular environment. For the in vivo degradation assay Msm cells stably expressing BRDTBD1 were used. The culture was treated with the compound Cym_bacPROTAC_3 or alternatively, the individual building blocks sCym-1 and JQ1. After two hours incubation, BRDTBD1 levels were quantified using capillary western as detailed below.
A stationary culture of M. smegmatis mc^2-155 carrying a plasmid BRDTBD1 expression was diluted 1:200 in 50 mL 7H9 medium supplemented with 50 µg/mL hygromycin. The culture was grown at 37 °C with vigorous shaking to an OD600 of ∼1. Expression of BRDTBD1 was then induced by addition of 200 µL 50% acetamide in H2O. […]
The amounts of BRDTBD1 in the lysates were quantified using Wes (ProteinSimple), a capillary electrophoresis-based western blot technology. Bacterial lysates were diluted 2-fold and analysed using the 12-230 kDa Wes Separation Module (Protein simple, SM-W004) following the manufacturer's instructions. […] BRDTBD1 was detected using the Anti-Rabbit Detection Module for Wes (ProteinSimple, DM-001), which includes a peroxidase-conjugated secondary antibody and a chemiluminescent substrate. Results were analysed using the Compass for SW software (ProteinSimple). […]

Data set [4] concerns mycobacterial proteome (2912 proteins) incl. BRDTBD1. Kind of data set: Selectivity of protein degradation, TMT mass spectrometric analysis of Msm lysates. In kind it is cell-based, M. smegmatis. The conditions noted are these: TMT MS, triplicate analysis, Figure 4. As to the method:
To address this point, a tandem mass tag (TMT) mass spectrometric (MS) analysis of Msm lysates was performed.
Thus, the TMT MS analysis provides compelling evidence that the compound Cym_bacPROTAC_3 is capable of inducing degradation of the BRDTBD1 substrate in a highly specific and efficient manner.

On to `CC[C@H](C)[C@@H]1NC(=O)[C@H](CC(C)C)N(C)C(=O)[C@H](C(C)C)NC(=O)[C@H](Cc2ccccc2)NC(=O)[C@H](C)NC(=O)[C@H](CCC(=O)OC(C)(C)C)N(C)C(=O)[C@H](Cc2cn(C(=O)OC(C)(C)C)c3ccccc23)NC1=O` [H-Val-MeLeu-Ile-Trp(Boc)-MeGlu(tBu)-Ala-Phe-OH], for which, in data set [1], the ring closure, yield after HPLC was determined as 39%. Besides, the ring closure, crude yield in data set [2] is 52% and 54%.
As to `Cc1sc2c(c1C)C(c1ccc(Cl)cc1)=N[C@@H](CC(=O)OC(C)(C)C)c1nnc(C)n1-2` [JQ1], the “BRDTBD1 levels after treatment” value in data set [3] is “did not affect BRDTBD1 levels”. Moreover, the “change in protein abundance versus vehicle (DMSO)” value in data set [4] is “did not affect BRDTBD1 levels and did also not cause global effects”.
